Experimental data from patent EP2441755A1 (Almirall, S.A., priority 2010, dated 2012).
Like-named read-outs stand apart in the source and are kept apart here.

Key:
LAD2 cells = LAD2 cells assay (degranulation, β-hexosaminidase release); format: cell-based; details: Homo sapiens
From the text: LAD2 is a human mast cell line depending on stem cell factor for its survival, maturation and differentiation. This mast cell line was established by the NIH from bone marrow aspirates from a patient with mast cell sarcoma. LAD2 cells resemble CD34+ - derived human mast cells as they have granules containing tryptase, histamine and β-hexosaminidase. They also express c-kit and FcεRI (Kirshenbaum, et al., Leukemia Research 27: 677-682, 2003).
Sensitization of LAD2 cells
Cells were sensitized (0.2x10^6 cells/ml) in its normal growth factor (Complete StemPro-34 SFM, Gibco 10639-011 containing StemPro-34 nutrient supplement (1/40); glutamine (2 mM) and supplemented with 100 ng/ml SCF) by adding 100 ng/ml of biotin-labeled IgE (USBiological) overnight (16-18 h, 37º, 5% CO2) in a humidified atmosphere (90%).
Compounds were prepared from a 10^-2M stock in 100% DMSO to give seven successive 1/3 dilutions in DMSO. From each concentration, 2 further 1/10 dilutions were prepared in release buffer (137 mM NaCl, 2.70 mM KCI, 0.4 mM NaH2PO4, 5.6 mM (D)-glucose, 1.8 mM CaCl2, 1.3 mM MgSO4, 0.025% BSA). Finally, 5 µl from each diluted concentration were transferred into the assay plate (flat 96-well Nunc). The final compound concentrations tested ranged from 1x10^-5M to […] with a final proportion of DMSO in the assay of 0.1 %. Control wells were treated with 0.1 % DMSO.
Sensitized LAD2 cells were centrifuged (300 g, 3 min, R.T.) and washed 2 times with release buffer. Cells were resuspended in release buffer and adjusted to a density of 0.2x10^6/ml. 45 µl of the adjusted cells were transfered to the assay plate (∼10,000cells/well) containg 5 µl of the final compound concentrations. LAD2 cells were incubated with the compound for 30 min (37 °C, 5% CO2 90% of humidity) and then activated with 125 ng/ml of streptavidin (Pierce 21125) for 30 min (37 °C, 5% CO2, 90% of humidity). After the activation, cells were centrifuged at 1200 g, 10 min, 12 °C and supernatats were removed and transfered to another well for determination of released β-hexosaminidase. Empty wells were filled with 50 µl of release buffer for determination of intracellular β-hexosaminidase. Cells were lysed with 2 cycles of freeze-thaw.
Cells were incubated for 90 minutes, 37 °C with 1 mM β-hexosaminidase substrate (p-nitrophenyl N-acetyl-D-glucosamide, in citric buffer, pH 4.5). Reaction was stopped with 0.4 M glycine solution (pH 10.0) and the plate is read immediately at 405 nm.

[1] = biological target: T1, Recombinant human full-length Syk (Homo sapiens, UniProt P43405); assay: Syk enzyme assay - radioactive filtration kinase assay; format: biochemical
T1 construct: Recombinant human full-length Syk was supplied by Millipore; purchased Millipore
Description: Syk Enzyme assay- Radioactive filtration kinase assay
Recombinant human full-length Syk was supplied by Millipore. The activity of Syk kinase was assessed using a radioactive filtration kinase assay. […] The reaction was initiated by the addition of 14.5 µl of 0.36 µCi [γ-^33P] ATP (10 mCi/ml, PerkinElmer). This was prepared in a half-area NBS plate (Corning) and allowed to stand at room temperature for 40 min. 15 µl of reaction mixture was transferred to a filter plate (Millipore) previously pre-wetted with a solution of 75 mM phosphoric acid. The reaction was terminated with the addition of 200 µl phosphoric acid. The filter plate was washed three times under vacuum on a vacuum manifold (Millipore cat# MSVMHTS00) at 8" Hg vacuum level with 200 µl phosphoric acid per wash. 30 µl Optiphase™ Supermix (PerkinElmer) was added to each test well and allowed to incubate for at least 1 h before counting. Radioactivity counting was performed in a Wallac MicroBeta®, and the tyrosine phosphorylation activity by Syk was calculated.

[2] = 0.5 h, IgE-sensitized LAD2 cells, 30 min with compound, activated with 125 ng/ml streptavidin, released β-hexosaminidase, read-out: LAD2IC50
[3] = Syk 1nM final, poly-GT 100 µg/ml, [γ-33P] ATP, 40 min at room temperature, read-out: Syk IC50

## Cc1ccnc(Nc2cccc(-c3ccnc(N4CCNCC4)c3)n2)c1 [Example 14, N-(4-Methylpyridin-2-yl)-2'-piperazin-1-yl-2,4'-bipyridin-6-amine]
LAD2 cells; [2]
  IC50: 70 nM
[1]
  IC50: 14 nM

## NCCc1cccc(-c2cccc(Nc3cc(C(F)(F)F)ccn3)n2)c1 [Example 20, N-{6-[3-(2-Aminoethyl)phenyl]pyridin-2-yl}-4-(trifluoromethyl)pyridin-2-amine]
LAD2 cells; [2]
  IC50: 186 nM
[1]; [3]
  IC50: 8 nM

## FC(F)(F)c1ccnc(Nc2cccc(-c3cccc(C4CCNCC4)c3)n2)c1 [Example 22, N-[6-(3-Piperidin-4-ylphenyl)pyridin-2-yl]-4-(trifluoromethyl)pyridin-2-amine]
LAD2 cells; [2]
  IC50: 368 nM
[1]; [3]
  IC50: 1.18 nM

## FC(F)(F)c1ccnc(Nc2cccc(-c3cccc(N4CCNCC4)c3)n2)c1 [Example 23, N-[6-(3-Piperazin-1-ylphenyl)pyridin-2-yl]-4-(trifluoromethyl)pyridin-2-amine]
LAD2 cells; [2]
  IC50: 331 nM
[1]
  IC50: 0.56 nM

## FC(F)(F)c1ccnc(Nc2cccc(-c3ccnc(N4CCNCC4)c3)n2)c1 [Example 26, 2'-Piperazin-1-y)-N-[4-(trifluoromethy))pyridin-2-y)]-2,4'-bipyridin-6-amine]
LAD2 cells; [2]
  IC50: 206 nM
[1]
  IC50: 1.8 nM

## C1=C(c2cccc(-c3cccc(Nc4cnccn4)n3)c2)CCNC1 [Example 29, N-{6-[3-(1,2,3,6-Tetrahydropyridin-4-y))pheny)]pyridin-2-y)}pyrazin-2-amine]
LAD2 cells; [2]
  IC50: 183 nM
[1]; [3]
  IC50: 20 nM

## Cc1ccnc(Nc2cc3ccccc3c(-c3ccnc(N4CCNCC4)c3)n2)c1 [Example 52, N-(4-Methylpyridin-2-yl)-1-(2-piperazin-1-ylpyridin-4-yl)isoquinolin-3-amine]
LAD2 cells; [2]
  IC50: 434 nM
[1]; [3]
  IC50: 18 nM

## O=C(Nc1cc(Nc2cnccn2)nc(-c2ccnc(N3CCNCC3)c2)c1)c1cccc(C(F)(F)F)c1 [Example 76, N-[2'-Piperazin-1-yl-6-(pyrazin-2-ylamino)-2,4'-bipyridin-4-yl]-3-(trifluoromethyl) benzamide]
LAD2 cells; [2]
  IC50: 310 nM
[1]; [3]
  IC50: 7 nM

## O=C(Nc1cc(Nc2cnccn2)nc(-c2ccnc(N3CCNCC3)c2)c1)c1ccc2c(c1)OCO2 [Example 77, N-[2'-Piperazin-1-yl-6-(pyrazin-2-ylamino)-2,4' -bipyridin-4-yl]-1,3-benzodioxole-5-Carboxamide]
LAD2 cells; [2]
  IC50: 230 nM
[1]; [3]
  IC50: 9 nM

## COc1ccc(C(=O)Nc2cc(Nc3cnccn3)nc(-c3ccnc(N4CCNCC4)c3)c2)cc1 [Example 81, 4-Methoxy-N-[2'-piperazin-1-yl-6-(pyrazin-2-ylamino)-2,4'-bipyridin-4-yl]benzamide]
LAD2 cells; [2]
  IC50: 430 nM
[1]; [3]
  IC50: 12 nM

## O=C(CCc1ccccc1)Nc1cc(Nc2cnccn2)nc(-c2ccnc(N3CCNCC3)c2)c1 [Example 82, 3-Phenyl-N-[2'-piperazin-1-yl-6-(pyrazin-2-ylamino)-2,4'-bipyridin-4-yl]propanamide]
LAD2 cells; [2]
  IC50: 280 nM
[1]; [3]
  IC50: 8 nM

## Cc1cc(C(=O)Nc2cc(Nc3cnccn3)nc(-c3ccnc(N4CCNCC4)c3)c2)n(C)n1 [Example 83, 1,3-Dimethyl-N-[2'-piperazin-1-yl-6-(pyrazin-2-ylamino)-2,4'-bipyridin-4-yl]-1H-pyrazole-5-Carboxamide]
LAD2 cells; [2]
  IC50: 170 nM
[1]
  IC50: 7 nM

## COC(=O)c1cccc(C(=O)Nc2cc(Nc3cnccn3)nc(-c3ccnc(N4CCNCC4)c3)c2)c1 [Example 87, Methyl 3-({[2'-piperazin-1-yl-6-(pyrazin-2-ylamino)-2,4'-bipyridin-4-yl]amino}carbonyl)benzoate]
LAD2 cells; [2]
  IC50: 330 nM
[1]; [3]
  IC50: 6 nM

## O=C(Cc1cccnc1)Nc1cc(Nc2cnccn2)nc(-c2ccnc(N3CCNCC3)c2)c1 [Example 89, N-[2'-Piperazin-1-yl-6-(pyrazin-2-ylamino)-2,4'-bipyridin-4-yl]-2-pyridin-3-ylacetamide]
LAD2 cells; [2]
  IC50: 350 nM
[1]
  IC50: 4 nM

## O=C(Nc1cc(Nc2cnccn2)nc(-c2ccnc(N3CCNCC3)c2)c1)c1cncnc1 [Example 95, N-[2'-Piperazin-1-yl-6-(pyrazin-2-ylamino)-2,4'-bipyridin-4-yl]pyrimidine-5-Carboxamide]
LAD2 cells; [2]
  IC50: 320 nM
[1]
  IC50: 9 nM

## O=C(Nc1cc(Nc2cnccn2)nc(-c2ccnc(N3CCNCC3)c2)c1)c1ccc(C(=O)O)nc1 [Example 96, 5-({[2'-Piperazin-1-yl-6-(pyrazin-2-ylamino)-2,4'-bipyridin-4-yl]amino}carbonyl) pyridine-2-Carboxylic acid]
LAD2 cells; [2]
  IC50: 200 nM
[1]
  IC50: 10 nM

## O=C(C[C@H](Cc1ccccc1)C(=O)O)Nc1cc(Nc2cnccn2)nc(-c2ccnc(N3CCNCC3)c2)c1 [Example 98, (2S)-2-Benzyl-4-oxo-4-{[2'-piperazin-1-yl-6-(pyrazin-2-ylamino)-2,4'-bipyridin-4-yl]amino}butanoic acid]
LAD2 cells; [2]
  IC50: 82 nM
[1]; [3]
  IC50: 16 nM

## CC(=O)Nc1cc(Nc2cnccn2)nc(-c2ccnc(N3CCNCC3)c2)c1 [Example 101, N-[2'-Piperazin-1-yl-6-(pyrazin-2-ylamino)-2,4'-bipyridin-4-yl]acetamide]
LAD2 cells; [2]
  IC50: 117 nM
[1]; [3]
  IC50: 8 nM

## O=C(O)C[C@H](Cc1ccccc1)NC(=O)c1cccc(C(=O)Nc2cc(Nc3cnccn3)nc(-c3ccnc(N4CCNCC4)c3)c2)c1 [Example 109, (3S)-4-Phenyl-3-{[3-({[2'-piperazin-1-yl-6-(pyrazin-2-ylamino)-2,4'-bipyridin-4-yl]amino}carbonyl)benzoyl]amino}butanoic acid]
LAD2 cells; [2]
  IC50: 100 nM
[1]; [3]
  IC50: 13 nM

## Nc1cc(Nc2cnccn2)nc(-c2ccnc(N3CCNCC3)c2)c1 [Example 127, 2'-Piperazin-1-yl-N^6-pyrazin-2-yl-2,4'-bipyridine-4,6-diamine]
LAD2 cells; [2]
  IC50: 118 nM
[1]
  IC50: 4 nM

## CNc1cc(Nc2cnccn2)nc(-c2ccnc(N3CCNCC3)c2)c1 [Example 128, N^4-Methyl-2'-(piperazin-1-yl)-N^6-(pyrazin-2-yl)-2,4'-bipyridine-4,6-diamine]
LAD2 cells; [2]
  IC50: 190 nM
[1]
  IC50: 4.1 nM

## OC1CCN(c2cc(Nc3cnccn3)nc(-c3ccnc(N4CCNCC4)c3)c2)CC1 [Example 130, 1-(2'-(Piperazin-1-yl)-6-(pyrazin-2-ylamino)-2,4'-bipyridin-4-yl)piperidin-4-ol]
LAD2 cells; [2]
  IC50: 400 nM
[1]; [3]
  IC50: 8.2 nM

## Nc1cc(Nc2cnccn2)nc(-c2cncc(N3CCNCC3)c2)c1 [Example 138]
LAD2 cells; LAD2, 0.5 h, read-out: LAD2IC50(nM)
  IC50: 150 nM
[1]; read-out: Syk IC50, Syk 1nM final, poly-GT 100 µg/ml, [γ-33P] ATP, 40 min at room temperature
  IC50: 2.5 nM
